Data as given in patent US8815857B2 (Boehringer Ingelheim International GmbH, priority 2011, dated 2014).
≈ marks a conversion by molar mass, not a printed value.

How the values were obtained:
[1] = target: T1, Recombinant human soluble guanylate cyclase (sGC), alpha 1 / beta 1 subunits, heme-free (Homo sapiens, UniProt Q02108+Q02153); assay: Molecular assay: cGMP formation by heme-free recombinant sGC (CisBio cGMP detection kit); format: biochemical; conditions: 300 pM heme-free sGC, 37° C., 60 min, cGMP readout; read-out: EC50 nM, Activity of Compounds in Molecular Assay
T1 construct: histidine tag (C); made in house; host or cells: Sf9 insect cells (baculovirus coinfection)
T1 sequence (Q02108 1-690 partner): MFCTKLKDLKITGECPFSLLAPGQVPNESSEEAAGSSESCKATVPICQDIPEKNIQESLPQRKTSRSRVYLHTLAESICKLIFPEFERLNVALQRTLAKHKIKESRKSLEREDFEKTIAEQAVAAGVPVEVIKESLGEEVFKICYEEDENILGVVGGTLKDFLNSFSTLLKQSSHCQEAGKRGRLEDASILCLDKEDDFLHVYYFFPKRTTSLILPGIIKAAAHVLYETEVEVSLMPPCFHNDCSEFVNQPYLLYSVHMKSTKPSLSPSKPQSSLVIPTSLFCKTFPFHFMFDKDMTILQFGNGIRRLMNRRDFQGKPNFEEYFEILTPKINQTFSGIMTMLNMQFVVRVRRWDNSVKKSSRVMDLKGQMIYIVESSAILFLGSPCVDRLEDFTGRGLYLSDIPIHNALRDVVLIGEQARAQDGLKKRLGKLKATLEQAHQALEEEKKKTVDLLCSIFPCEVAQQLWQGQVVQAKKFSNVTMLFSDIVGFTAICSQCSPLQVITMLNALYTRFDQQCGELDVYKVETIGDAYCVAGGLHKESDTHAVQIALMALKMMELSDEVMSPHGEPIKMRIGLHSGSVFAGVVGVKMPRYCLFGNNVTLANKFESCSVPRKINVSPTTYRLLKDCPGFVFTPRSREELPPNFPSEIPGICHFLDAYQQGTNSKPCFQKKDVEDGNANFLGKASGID
T1 sequence (Q02153 1-619): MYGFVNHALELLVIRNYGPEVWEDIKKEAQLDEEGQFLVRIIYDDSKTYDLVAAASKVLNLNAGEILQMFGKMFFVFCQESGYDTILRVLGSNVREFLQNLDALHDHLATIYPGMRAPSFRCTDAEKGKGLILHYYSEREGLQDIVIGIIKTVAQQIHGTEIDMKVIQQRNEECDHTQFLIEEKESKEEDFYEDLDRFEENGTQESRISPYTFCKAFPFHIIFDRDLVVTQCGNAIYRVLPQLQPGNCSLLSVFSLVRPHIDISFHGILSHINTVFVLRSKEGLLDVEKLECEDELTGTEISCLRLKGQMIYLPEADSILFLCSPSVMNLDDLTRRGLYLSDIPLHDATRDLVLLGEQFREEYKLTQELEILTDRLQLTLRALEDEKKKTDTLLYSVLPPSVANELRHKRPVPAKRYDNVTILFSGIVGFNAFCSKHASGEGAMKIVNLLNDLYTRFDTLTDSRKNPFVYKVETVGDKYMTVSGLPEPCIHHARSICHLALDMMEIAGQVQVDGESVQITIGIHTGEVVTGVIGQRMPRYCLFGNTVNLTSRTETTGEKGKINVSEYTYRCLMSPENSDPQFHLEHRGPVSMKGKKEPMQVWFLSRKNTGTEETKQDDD
In short: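 Heme-free His-tagged sGC (Sf9-expressed, Tween 20-treated lysate) at 300 pM incubated with compounds (1% DMSO) for 60 min at 37° C in MOPS pH 6.8 with 50 nM GTP, IBMX, TCEP. cGMP quantified by HTRF against calibration curve; EC50 from combined undiluted/diluted values.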

[2] = target: T2, human soluble guanylate cyclase alpha 1 and beta 1 subunits (sGC) stably expressed in Chinese hamster ovary cells (Homo sapiens, UniProt Q02108+Q02153); assay: sGC cellular activator assay: cGMP in CHO cells expressing human sGC, preincubated with ODQ; format: cell-based; conditions: 40 microM ODQ preincubation, 30 min at room temperature, presence or absence of 50% human serum not given, read-out: EC50 nM, Activity of Compounds in Cellular Assay
T2 construct: expressed in transfected cells; host or cells: Chinese hamster ovary cells, stably transfected
T2 sequence (Q02108 1-690 partner): T1 sequence (Q02108 1-690 partner)
T2 sequence (Q02153 1-619): T1 sequence (Q02153 1-619)
In short: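 EC50 values derive from HTRF cGMP measurement after test compounds act for thirty minutes at room temperature, with or without 50% human serum. Before dosing, the sGC-transfected CHO cells spend one hour with the inhibitor ODQ (40 microM) in IBMX- and 0.1% BSA-containing buffer.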

[3] = Assessment of solubility: HT solubility in pION buffer, UV spectrophotometry; conditions: kinetic from dmso stock
[4] = pION system solution buffer, pH 4.5, pH 4.5, aqueous buffer, Solubility (pH 4.5), pH 4.5 buffer, 16-19 h incubation, 1.0% DMSO
[5] = pION system solution buffer, pH 7.4, pH 7.4, aqueous buffer, Solubility (pH 7.4), pH 7.4 buffer, 16-19 h incubation, 1.0% DMSO
[6] = pH 6.8, aqueous buffer, Solubility (pH 6.8), pH 6.8

| Compound | EC50 [1] [nM] | EC50 [2] [nM] | solubility [3, 4] [µg/mL] | solubility [3, 5] [µg/mL] | solubility [3, 6] [µg/mL] |
| --- | --- | --- | --- | --- | --- |
| Cc1cc(CN2CCS(=O)(=O)CC2)ccc1COc1c(C)cccc1-c1csc(N2C[C@H]3CC[C@@H](C2)[C@H]3C(=O)O)n1 [Compound 203] | 23 | 68 | 3 (≈ 5.04 µM) | > 59 |  |
| Cc1ccc(OCc2ccc(CN3CCS(=O)(=O)CC3)cc2C)c(-c2csc(N3CCC(C(=O)O)C(C)C3)n2)c1 (stereo not drawn) [Compound 204] | 28 | 17 | 0.35 (≈ 0.6 µM) | 54 (≈ 92.5 µM) |  |
| Cc1cc(CN2CCS(=O)(=O)CC2)ccc1COc1c(C)cccc1-c1csc(N2C3CCC2CC(C(=O)O)C3)n1 (stereo not drawn) [Compound 205] | 80 | 200 | 9.5 (≈ 15.9 µM) | > 59 |  |
| Cc1cc(CN2CCOCC2)ccc1COc1c(C)cccc1-c1csc(N2C[C@H]3CC[C@@H](C2)[C@H]3C(=O)O)n1 [Compound 206] | 170 | 88 | > 58 | > 58 |  |
| Cc1cc(CN2CCS(=O)(=O)CC2)ccc1COc1ccc(Cl)cc1-c1csc(N2C3CCC2CC(C(=O)O)C3)n1 (stereo not drawn) [Compound 207] | 170 | 93 | 0.95 (≈ 1.54 µM) | 30 (≈ 48.7 µM) |  |
| Cc1cc(C(=O)N2CCCCC2)ccc1COc1c(C)cccc1-c1csc(N2C[C@H]3CC[C@@H](C2)[C@H]3C(=O)O)n1 [Compound 208] | 250 | 39 | 0.3 (≈ 0.536 µM) | > 55 |  |
| Cc1cc(C(=O)N2CCCCC2)ccc1COc1c(C)cccc1-c1csc(N2C3CCC2CC(C(=O)O)C3)n1 (stereo not drawn) [Compound 209] | 270 | 96 | 5.1 (≈ 9.11 µM) | > 55 |  |
| Cc1cc(CN2CCOCC2)ccc1COc1c(C)cccc1-c1csc(N2C3CCC2CC(C(=O)O)C3)n1 (stereo not drawn) [Compound 210] | 350 | 430 | > 58 | > 58 |  |
| Cc1cc(CN2CCS(=O)(=O)CC2)ccc1COc1ccc(Cl)cc1-c1csc(N2CC3CCC(C2)C3C(=O)O)n1 (stereo not drawn) [Compound 211] | 370 | 190 | 1.4 (≈ 2.27 µM) | 17 (≈ 27.6 µM) |  |
| Cc1ccc(OCc2ccc(C(=O)N3CCCCC3)cc2C)c(-c2csc(N3C[C@H]4CC[C@@H](C3)[C@@]4(C)C(=O)O)n2)c1 [Compound 214] | 22 | 15 | < 0.1 | 21 (≈ 36.6 µM) | 51 (≈ 88.9 µM) |
| Cc1ccc(OCc2ccc(CN3CCS(=O)(=O)CC3)cc2C)c(-c2csc(N3CCC4(C(=O)O)CC4C3)n2)c1 (stereo not drawn) [Compound 217] | 49 | 8.7 | 0.95 (≈ 1.63 µM) | 34 (≈ 58.4 µM) |  |
| Cc1ccc(OCc2ccc(CN3CCOCC3)cc2C)c(-c2csc(N3CCC4(C(=O)O)CC4C3)n2)c1 (stereo not drawn) [Compound 218] | 170 | 18 | > 64 | 39 (≈ 73.1 µM) |  |
| Cc1ccc(OCc2ccc(CN3CCS(=O)(=O)CC3)cc2C)c(-c2csc(N3CCC(CC(=O)O)CC3)n2)c1 [Compound 219] | 1000 | 300 | 2.4 (≈ 4.11 µM) | 41 (≈ 70.2 µM) |  |
| Cc1ccc(OCc2ccc(CN3CCS(=O)(=O)CC3)cc2C)c(-c2csc(N3CCCC(C(=O)O)CC3)n2)c1 (stereo not drawn) [Compound 234] | 6 | 7.9 | 3.3 (≈ 5.65 µM) | > 58 |  |
| Cc1ccc(OCc2ccc(CN3CCS(=O)(=O)CC3)cc2C)c(-c2csc(N3C[C@H]4C[C@@H](C3)[C@H]4C(=O)O)n2)c1 [Compound 235] | 47 | 57 | 8.1 (≈ 13.9 µM) | > 58 |  |
| Cc1ccc(OCc2ccc(C(=O)N3CCCCC3)cc2C)c(-c2csc(N3C[C@H]4C[C@@H](C3)[C@H]4C(=O)O)n2)c1 [Compound 236] | 190 | 79 | 6.6 (≈ 12.1 µM) | > 54 |  |
| Cc1ccc(OCc2ccc(CN3CCOCC3)cc2C)c(-c2csc(N3C[C@H]4C[C@@H](C3)[C@H]4C(=O)O)n2)c1 [Compound 237] | 240 | 130 | > 53 | > 53 |  |
| Cc1ccc(OCc2ccc(C(=O)N3CCCCC3)cc2C)c(-c2csc(N[C@@H]3CC[C@H](C(=O)O)C3)n2)c1 [Compound 239] | 2900 | 650 | 2.7 (≈ 5.06 µM) | > 53 |  |
| Cc1cc(C(=O)N2CCCCC2)ccc1COc1ccc(Cl)cc1-c1csc(N2CCC(C(=O)O)CC2)n1 [Compound 271] | 45 | 19 | 3.7 (≈ 6.68 µM) | 21 (≈ 37.9 µM) |  |
| Cc1cc(CN2CCS(=O)(=O)CC2)ccc1COc1ccccc1-c1csc(N2CCC(C(=O)O)CC2)n1 [Compound 272] | 120 | 110 | 14 (≈ 25.2 µM) | > 160 |  |
| Cc1cc(CN2CCS(=O)(=O)CC2)ccc1COc1ccc(C#N)cc1-c1csc(N2CCC(C(=O)O)CC2)n1 [Compound 273] | 320 | 570 | 7.3 (≈ 12.6 µM) | > 82 |  |
| Cc1cc(C(=O)N2CCCCC2)ccc1COc1ccc(C#N)cc1-c1csc(N2CCC(C(=O)O)CC2)n1 [Compound 274] | 1600 | 600 | 0.95 (≈ 1.74 µM) | > 54 |  |
| Cc1cc(CN2CCS(=O)(=O)CC2)ccc1COc1ccc(F)cc1-c1csc(N2CC3CCC(C2)C3C(=O)O)n1 (stereo not drawn) [Compound 275] | 1800 | 670 | 0.6 (≈ 1 µM) | 4 (≈ 6.67 µM) |  |
| Cc1ccc(OCc2ccc(CN3CCOCC3)cc2OC(F)(F)F)c(-c2csc(N3CCC(C(=O)O)CC3)n2)c1 [Compound 277] | 74 | 16 | 21 (≈ 35.5 µM) | 41 (≈ 69.3 µM) |  |
| Cc1ccc(OCc2ccc(CN3CCN4CCCC4C3)cc2C)c(-c2csc(N3CCC(C(=O)O)CC3)n2)c1 (stereo not drawn) [Compound 350] | 260 | 170 | > 56 | > 56 |  |
| Cc1ccc(OCc2ccc(CN3CCOC(C)(C)C3)cc2C#N)c(-c2csc(N3C[C@H]4CC[C@@H](C3)[C@H]4C(=O)O)n2)c1 [Compound 358] |  | 30 | 0.14 (≈ 0.239 µM) |  | 8.1 (≈ 13.8 µM) |
| Cc1ccc(OCc2ccc(CN3CCOCC3C)cc2C#N)c(-c2csc(N3C[C@H]4CC[C@@H](C3)[C@H]4C(=O)O)n2)c1 (stereo partly drawn) [Compound 359] |  | 36 | 12 (≈ 21 µM) |  | 5.8 (≈ 10.1 µM) |
| Cc1ccc(OCc2ccc(C(=O)N3CC(F)(F)C3)cc2C)c(-c2csc(N3C[C@H]4CC[C@@H](C3)[C@H]4C(=O)O)n2)c1 [Compound 360] |  | 21 |  |  | 33 (≈ 58.1 µM) |
| Cc1ccc(OCc2ccc(C(=O)N3CCC3)cc2C)c(-c2csc(N3C[C@H]4CC[C@@H](C3)[C@H]4C(=O)O)n2)c1 [Compound 361, 3-(4-{2-[4-(azetidine-1-carbonyl)-2-methyl-benzyloxy]-5-methyl-phenyl}-thiazol-2-yl)-3-aza-bicyclo[3.2.1]octane-8(syn)-carboxylic acid] |  | 17 |  |  | 34 (≈ 63.9 µM) |
